Where a name gives a salt, the structure may show the parent alone.

For the first experiment, the system named is ATGL-KO iPSCs. Put plainly: High throughput iPSC chemical screening, Oil Red O (ORO) lipid accumulation. For Z-score: test concentration or dose not given here. Particulars: glycolytic switch compounds. The class given is cell-based, mouse.
On to `Clc1ccccc1C(c1ccccc1)(c1ccccc1)n1ccnc1` [Clotrimazole], for which the “Rank in normalized ORO score from screen” value is reported as 37.

The same experiment, now with this note: normalized ORO level vs DMSO-treated cells; compound present during 7 days differentiation, 96-well; negative = decrease in lipid accumulation.
Take `CCOC(=O)c1ccc(N)cc1` [Benzocaine]: the Z-score was found to be 1.149.
For the compound `Nc1cc(N2CCCCC2)nc(N)[n+]1[O-]` [Minoxidil], the Z-score is 0.06676.
For the compound Viomycin sulfate, the Z-score was found to be 1.64.
With `CCN1C(=O)NC(c2ccccc2)C1=O` (stereo not shown) [Ethotoin], the Z-score is given as −0.7327.
Same read-out and setting: in the case of `CO[C@@H]1[C@@H](OC(N)=O)[C@@H](O)[C@H](Oc2ccc3c(O)c(NC(=O)c4ccc(O)c(CC=C(C)C)c4)c(=O)oc3c2C)OC1(C)C` [Novobiocin sodium salt] it was −1.5591; in that of `Cn1c(=O)c2c(ncn2CC(O)CO)n(C)c1=O` (stereo not shown) [Diprophylline], −0.3767.
`O=C(O)CNC(=O)C(CS)Cc1ccccc1` (stereo not shown) [Thiorphan]: the Z-score came to 1.245.
`COc1ccc2c(c1OC)C(=O)O[C@@H]2[C@H]1c2c(cc3c(c2OC)OCO3)CCN1C` [Noscapine] yielded a Z-score of 0.8948.
Turning to `COc1ccc2c3c([nH]c2c1)C(C)=NCC3.Cl.O.O` [Harmaline hydrochloride dihydrate], the Z-score is recorded as −0.5714.
Take `CC(C[N+](C)(C)C)OC(N)=O` (stereo not shown) [Bethanechol chloride]: the Z-score is given as −0.3853.
Still for that read-out and setting: in the case of `C[N+](C)(C)CCOC(N)=O` [Carbachol] it was 0.7384.
Compound (−)-MK 801 hydrogen maleate had a Z-score of −0.2074.
Compound `NC(=O)c1cc[n+](CC2=C(C(=O)O)N3C(=O)[C@@H](NC(=O)[C@@H](c4ccccc4)S(=O)(=O)[O-])[C@H]3SC2)cc1` [Cefsulodin sodium salt] returned a Z-score of −1.1155.
In the case of `CN[C@@H]1[C@H](O)[C@H](NC)[C@H]2O[C@@]3(O)C(=O)C[C@@H](C)O[C@H]3O[C@@H]2[C@H]1O` [Spectinomycin dihydrochloride], the Z-score is on record as −0.1287.
As to `C[C@@H]1CC[C@H]2[C@@H](C)C(=O)O[C@@H]3O[C@@]4(C)CC[C@@H]1[C@]32OO4` [Artemisinin], the Z-score is recorded as 4.801.
As for `O=C1C(CC[S+]([O-])c2ccccc2)C(=O)N(c2ccccc2)N1c1ccccc1` (stereo not shown) [Sulfinpyrazone], the Z-score is −1.4016.
Consider `Clc1ccccc1C(c1ccccc1)(c1ccccc1)n1ccnc1` [Clotrimazole], for which the Z-score is −1.6708.
The same measure, in the same setting: in the case of `O=C(O)COC(=O)Cc1ccccc1Nc1c(Cl)cccc1Cl` [Aceclofenac] it was −0.5442; in that of `Cc1c(Cl)cccc1Nc1ccccc1C(=O)O` [Tolfenamic acid], −0.8256.
The compound `CC(C)c1c(CN(C)C(C)Cc2ccccc2)n(C)n(-c2ccccc2)c1=O` (stereo not shown) [Famprofazone] came in with a Z-score of 0.6911.
Still for that read-out and setting: in the case of `COc1c2c(nc3ccccc13)OC(C(C)(O)CO)C2` (stereo not shown) [Dubinidine] it was 0.2385; in that of `c1cncc(C2=NCCC2)c1` [Myosmine], 0.265.
On the same count and under the same terms, for `O=C(Cn1ccnc1[N+](=O)[O-])NCCO` [Etanidazole] the value was 0.6681.
With `NC(=O)c1cc[n+](CC2=C(C(=O)[O-])N3C(=O)[C@@H](NC(=O)Cc4cccs4)[C@H]3SC2)cc1` [Cefalonium], the Z-score is on record as −0.8363.
The same measure, in the same setting: in the case of `CC[C@@H](C(=O)[C@@H](C)[C@@H](O)[C@H](C)CCc1ccc(C)c(O)c1C(=O)O)[C@H]1O[C@](CC)([C@H]2CC[C@](O)(CC)[C@H](C)O2)C[C@@H]1C` [Lasalocid sodium salt] it was 9.898; in that of `CC1Cc2ccccc2N1NC(=O)c1ccc(Cl)c(S(N)(=O)=O)c1` (stereo not shown) [Indapamide], −0.6747.
Compound `Cc1nccn1CC1CCc2c(c3ccccc3n2C)C1=O` (stereo not shown) [Ondansetron Hydrochloride] displayed a Z-score of −0.6933.
For Mephentermine hemisulfate, the Z-score is 0.04889.
Regarding `CCCCC(CC)CN1CN(CC(CC)CCCC)CC(C)(N)C1` (stereo not shown) [Hexetidine], the Z-score is reported as 1.396.
Compound `CC1CC(OC(=O)C(O)c2ccccc2)CC(C)(C)N1C` (stereo not shown) [Eucatropine hydrochloride] displayed a Z-score of 0.9133.
As to `CC(=O)Oc1ccccc1C(=O)Oc1ccccc1C(=O)O` [Acetylsalicylsalicylic acid], the Z-score is −1.3067.
Compound `CCC1(c2ccccc2)NC(=O)N(C)C1=O` (stereo not shown) [Mephenytoin] had a Z-score of 0.8864.
The compound `CCN(CC)CC#CCOC(=O)C(O)(c1ccccc1)C1CCCCC1` (stereo not shown) [Oxybutynin chloride] had a Z-score of −1.0993.
Turning to `COc1ccc2cc1Oc1ccc(cc1)C[C@H]1c3cc(c(OC)cc3CCN1C)Oc1c(OC)c(OC)cc3c1[C@H](C2)N(C)CC3` [Tetrandrine], the Z-score is on record as −1.1905.
`Cn1c([N+](=O)[O-])cnc1COC(N)=O` [Ronidazole] yielded a Z-score of 1.5256.
As for `CC(=O)N(CC(O)CO)c1c(I)c(C(=O)NCC(O)CO)c(I)c(C(=O)NCC(O)CO)c1I` (stereo not shown) [Iohexol], the Z-score was −1.1016.
Take `CCCSc1ccc2nc(NC(=O)OC)[nH]c2c1` [Albendazole]: the Z-score came out at 41.6509.
On the same count and under the same terms, in the case of `CC(=O)OCC(=O)[C@@]1(OC(C)=O)[C@@H](C)C[C@H]2[C@@H]3C[C@H](F)C4=CC(=O)C=C[C@]4(C)[C@@]3(F)[C@@H](O)C[C@@]21C` [Diflorasone Diacetate] it was 0.6842; in that of `CCOC(=O)n1ccn(C)c1=S` [Carbimazole], −0.836.
In the case of `COc1ccc2c(c1)[C@]13CCCC[C@@H]1[C@H](C2)N(C)CC3`, the Z-score was −0.8776.
In the case of `Nc1ccccc1S(N)(=O)=O` [2-Aminobenzenesulfonamide], the Z-score is given as −1.9389.
The same measure, in the same setting: in the case of `CC1=NS(=O)(=O)c2cc(Cl)ccc2N1` [Diazoxide] it was 0.5969; in that of Guanadrel sulfate, −0.4661.
As for `CC[N+](CC)(CC)CCOc1cccc(OCC[N+](CC)(CC)CC)c1OCC[N+](CC)(CC)CC` [Gallamine triethiodide], the Z-score is 0.8644.
As for `Cn1cnc2c1c(=O)[nH]c(=O)n2C` [Theobromine], the Z-score is on record as 0.09359.
In turn, `Clc1ccc(COC(Cn2ccnc2)c2ccc(Cl)cc2Cl)c(Cl)c1` (stereo not shown) [Miconazole] displayed a Z-score of −0.018.
Take `CC(C)(C)NCC(O)COc1cccc2c1CC(O)C(O)C2` (stereo not shown) [Nadolol]: the Z-score was −1.7201.
`O=C(C1CCCCC1)N1CC(=O)N2CCc3ccccc3C2C1` (stereo not shown) [Praziquantel] had a Z-score of −0.5159.
The compound `CC(=O)OCC1=C(C(=O)O)N2C(=O)[C@@H](NC(=O)Cc3cccs3)[C@H]2SC1` [Cephalothin sodium salt] came in with a Z-score of 0.8566.
The compound `[H]/N=C(/N)NS(=O)(=O)c1ccc(N)cc1` [Sulfaguanidine] showed a Z-score of 1.05.
Turning to `CCN[C@H]1CN(CCCOC)S(=O)(=O)c2sc(S(N)(=O)=O)cc21` [Brinzolamide], the Z-score is recorded as −0.419.
The compound Avermectin B1 gave a Z-score of −0.9704.
As for `c1ccc2c(c1)CCCc1cc(NCCN3CCOCC3)nnc1-2` [SR-95639A], the Z-score is listed as −0.7703.
`CN1CCN(CCCN2c3ccccc3Sc3ccc(C(F)(F)F)cc32)CC1` [Trifluoperazine dihydrochloride] displayed a Z-score of 0.5386.
Same read-out and setting: in the case of `CCC1(c2ccccc2)C(=O)NCNC1=O` [Primidone] it was −0.0045.
On to `CC(C)NC[C@@H](O)COc1cccc2ccccc12.Cl` [(R)-Propranolol hydrochloride], for which the Z-score is −0.4494.
Compound `COc1cc2c3cc1Oc1cc(ccc1O)C[C@@H]1c4c(cc(OC)c(O)c4Oc4ccc(cc4)C[C@@H]3N(C)CC2)CC[N+]1(C)C.Cl.O.O.O.O.O.[Cl-]` [Tubocurarine chloride pentahydrate (+)] showed a Z-score of 0.8961.
As to `CN(C)/N=N/c1[nH]cnc1C(N)=O` [Dacarbazine], the Z-score is −0.3016.
`CCc1nc(N)nc(N)c1-c1ccc(Cl)cc1` [Pyrimethamine] displayed a Z-score of 2.959.
In turn, `CC1=C(/C=C/C(C)=C/C=C/C(C)=C\C(=O)O)C(C)(C)CCC1` [Isotretinoin] returned a Z-score of −1.1597.
Same read-out and setting: for `c1ccc2c(CC3=NCCN3)cccc2c1` [Naphazoline hydrochloride] the value was −0.8458.
Consider `CC(C)[N+](C)(CCOC(=O)C1c2ccccc2Oc2ccccc21)C(C)C` [Propantheline bromide], for which the Z-score is on record as −0.9862.
`COc1cc2ccc(=O)oc2cc1O` [Scopoletin] returned a Z-score of 0.6027.
For the compound `C[C@H]1O[C@@H](O[C@H]2[C@@H](O)C[C@H](O[C@H]3[C@@H](O)C[C@H](O[C@H]4CC[C@@]5(C)[C@H](CC[C@@H]6[C@@H]5C[C@@H](O)[C@]5(C)[C@@H](C7=CC(=O)OC7)CC[C@]65O)C4)O[C@@H]3C)O[C@@H]2C)C[C@H](O)[C@@H]1O` [Digoxin], the Z-score was −0.815.
Regarding `CN1C[C@H](CNC(=O)OCc2ccccc2)C[C@@H]2c3cccc4c3c(cn4C)C[C@H]21` [Metergoline], the Z-score was 0.5474.
The compound `CCN(CC)CCNC(=O)COc1ccc(OC)cc1` [Mefexamide hydrochloride] had a Z-score of −0.2169.
On to `COc1ccc2c(c1O)-c1c(OC)c(OC)cc3c1[C@H](C2)N(C)CC3` [Isocorydine (+)], for which the Z-score was −0.7668.
Take Isoetharine mesylate salt: the Z-score is reported as −0.7902.
Turning to `CN(C)CCOC(c1ccccc1)c1ccccc1` [Diphenhydramine hydrochloride], the Z-score stood at 1.308.
For `Cc1ccccc1C(OCCN(C)C)c1ccccc1` (stereo not shown) [Orphenadrine hydrochloride], the Z-score is on record as −0.3046.
For the compound Timolol maleate salt, the Z-score turned out to be 0.4592.
As to `CCN1CCC[C@H]1CNC(=O)c1c(OC)ccc(Br)c1OC` [Remoxipride Hydrochloride], the Z-score is −0.4559.
`CCN(CC)C(=O)N[C@H]1C=C2c3cccc4[nH]cc(c34)C[C@H]2N(C)C1` [Lisuride (S)(−)] gave a Z-score of −0.7927.
On the same count and under the same terms, in the case of `O=C(O)c1cc(-c2ccc(F)cc2F)ccc1O` [Diflunisal] it was −0.3972; in that of `CC(C)(Oc1ccc(Cl)cc1)C(=O)O` [Clofibric acid], 2.297.

Values taken from patent US9393221B2, “Methods and compounds for reducing intracellular lipid storage” (THE GENERAL HOSPITAL CORPORATION, priority 2011, dated 2016).
